The values that follow come from patent EP0125420B1, “Water soluble dispersions of chlorthalidone and process for preparing them” (Boehringer Ingelheim Pharmaceuticals Inc., priority 1983, dated 1984).

Converted amounts (≈) assume the structure as drawn.

A short description of data set [1]: stability of the solution to ether formation. The conditions noted are these: chlorthalidone added to solution of polymeric carrier in C1-C4 alkanol. It counts as physicochemical. The source says:
The polymeric carrier polyvinylpyrrolidone (PVP), used in the process of the invention must be pharmaceutically acceptable and be substantially soluble both in water and in the particular Cl-C4 alkanol selected for use in the process. Moreover, the polymeric carrier must be capable of forming a solid state dispersion of chlorthalidone after removal of the alkanol, and be capable of suppressing ether formation arising from reaction of the chlorthalidone with the Cl-C4 alkanol, as discussed above. The ability of a polymeric carrier to suppress ether formation can be determined routinely by dissolving chlorthalidone in a Cl-C4 alkanol, such as methanol, in a glass container in the presence and absence of the polymeric carrier and analyzing aliquots of the solution (taken at varying times up to 24 hours) for chlorthalidone content by HPLC techniques. An acceptable loss of chlorthalidone is up to about 2% after 24 hours at 40°C. The general use of polyvinylpyrrolidone (PVP), to prepare solid state dispersions of pharmaceutical active ingredients is described by the Chiou reference, supra. […] It is believed that PVP suppresses the formation of ethers primarily by complexing trace amounts of heavy metal ions thus making them unavailable for catalysis. […]

For data set [2] the following is noted: water; cited from earlier work.
The next data set can be described thus: physchem. Type of data set: physicochemical. The settings on record: organic solvent or mixture. The source says:
The amount of the Cl-C4 alkanol employed in the process of the invention should be sufficient to solubilize both the polymeric carrier and chlorthalidone. It will be apparent to those skilled in the art that best results will be achieved on a large scale using as high a concentration of chlorthalidone as is possible. Thus, optimally the process should be carried out using concentrations of chlorthalidone at the upper limits of solubility.

On to `NS(=O)(=O)c1cc(C2(O)NC(=O)c3ccccc32)ccc1Cl` (stereo not drawn) [Chlorthalidone], for which the figures for the “stable to ether formation” value in data set [1] (continued heating) and in data set [1] (room temperature) were “at least one hour” and “at least four days”, respectively. Besides, in data set [2], the aqueous solubility is ~120 µg/mL (≈ 0.354 mM). Also, the solubility (thermodynamic) came out at 15.5 mg/mL (≈ 45.8 mM) in “physchem” (ethanol), 3.2 mg/mL (≈ 9.45 mM) in “physchem” (isopropanol) and 76.1 mg/mL (≈ 225 mM) in the data set “physchem” (methanol).
